Assay results taken from ChEMBL document CHEMBL1649234, “Antimicrobial activities of piperacillin-tazobactam against Haemophilus influenzae isolates, including beta-lactamase-negative ampicillin-resistant and beta-lactamase-positive amoxicillin-clavulanate-resistant isolates, and mutations in their quinolone resistance-determining regions” (2009).
≈ marks a conversion by molar mass, not a printed value.

Key:
Format in all cases: functional
[1] = system: Haemophilus influenzae; assay: Antimicrobial activity against beta-lactamase negative ampicillin-susceptible Haemophilus influenzae harboring […] mutant gene assessed as susceptible isolates by broth microdilution method in presence of beta-lactamase inhibitor clavulanic acid
[2] = system: Haemophilus influenzae; assay: Antimicrobial activity against beta-lactamase negative ampicillin-susceptible Haemophilus influenzae harboring […] mutant gene by broth microdilution method in presence of beta-lactamase inhibitor clavulanic acid
[3] = system: Haemophilus influenzae; assay: Antimicrobial activity against beta-lactamase-positive ampicillin-resistant Haemophilus influenzae harboring […] mutant gene assessed as susceptible isolates by broth microdilution method in presence of beta-lactamase inhibitor clavulanic acid
[4] = system: Haemophilus influenzae; assay: Antimicrobial activity against beta-lactamase positive (amoxicillin)clavulanate-resistant Haemophilus influenzae assessed as susceptible isolates by broth microdilution method in presence of beta-lactamase inhibitor clavulanic acid
[5] = system: Haemophilus influenzae; assay: Antimicrobial activity against beta-lactamase negative ampicillin-resistant Haemophilus influenzae by broth microdilution method in presence of beta-lactamase inhibitor clavulanic acid
[6] = system: Haemophilus influenzae; assay: Antimicrobial activity against beta-lactamase-positive ampicillin-resistant Haemophilus influenzae harboring fst1 mutant gene by broth microdilution method in presence of beta-lactamase inhibitor clavulanic acid
[7] = system: Haemophilus influenzae; assay: Antimicrobial activity against beta-lactamase negative ampicillin-resistant Haemophilus influenzae assessed as susceptible isolates by broth microdilution method in presence of beta-lactamase inhibitor clavulanic acid
[8] = system: Haemophilus influenzae; assay: Antimicrobial activity against beta-lactamase positive (amoxicillin)clavulanate-resistant Haemophilus influenzae by broth microdilution method in presence of beta-lactamase inhibitor clavulanic acid
[9] = system: Haemophilus influenzae; assay: Antimicrobial activity against beta-lactamase-positive ampicillin-resistant Haemophilus influenzae harboring fst1 mutant gene by broth microdilution method
[10] = system: Haemophilus influenzae; assay: Antimicrobial activity against beta-lactamase positive (amoxicillin)clavulanate-resistant Haemophilus influenzae assessed as susceptible isolates by broth microdilution method in presence of beta-lactamase inhibitor Sulbactam
[11] = system: Haemophilus influenzae; assay: Antimicrobial activity against beta-lactamase negative ampicillin-susceptible Haemophilus influenzae harboring […] mutant gene assessed as susceptible isolates by broth microdilution method
[12] = system: Haemophilus influenzae; assay: Antimicrobial activity against beta-lactamase-positive ampicillin-resistant Haemophilus influenzae harboring fst1 mutant gene by broth microdilution method in presence of beta-lactamase inhibitor Sulbactam
[13] = system: Haemophilus influenzae; assay: Antimicrobial activity against beta-lactamase negative ampicillin-resistant Haemophilus influenzae by broth microdilution method in presence of beta-lactamase inhibitor Sulbactam
[14] = system: Haemophilus influenzae; assay: Antimicrobial activity against beta-lactamase positive (amoxicillin)clavulanate-resistant Haemophilus influenzae by broth microdilution method
[15] = system: Haemophilus influenzae; assay: Antimicrobial activity against beta-lactamase-positive ampicillin-resistant Haemophilus influenzae harboring fst1 mutant gene assessed as susceptible isolates by broth microdilution method
[16] = system: Haemophilus influenzae; assay: Antimicrobial activity against beta-lactamase negative ampicillin-resistant Haemophilus influenzae assessed as susceptible isolates by broth microdilution method
[17] = system: Haemophilus influenzae; assay: Antimicrobial activity against beta-lactamase negative ampicillin-resistant Haemophilus influenzae assessed as susceptible isolates by broth microdilution method in presence of beta-lactamase inhibitor Sulbactam
[18] = system: Haemophilus influenzae; assay: Antimicrobial activity against beta-lactamase negative ampicillin-susceptible Haemophilus influenzae harboring […] mutant gene assessed as susceptible isolates by broth microdilution method in presence of beta-lactamase inhibitor Sulbactam
[19] = system: Haemophilus influenzae; assay: Antimicrobial activity against beta-lactamase negative ampicillin-susceptible Haemophilus influenzae harboring […] mutant gene by broth microdilution method in presence of beta-lactamase inhibitor Sulbactam
[20] = system: Haemophilus influenzae; assay: Antimicrobial activity against beta-lactamase positive (amoxicillin)clavulanate-resistant Haemophilus influenzae by broth microdilution method in presence of beta-lactamase inhibitor Sulbactam
[21] = system: Haemophilus influenzae; assay: Antimicrobial activity against beta-lactamase negative ampicillin-resistant -Haemophilus influenzae by broth microdilution method
[22] = system: Haemophilus influenzae; assay: Antimicrobial activity against beta-lactamase-positive ampicillin-resistant Haemophilus influenzae harboring […] mutant gene assessed as susceptible isolates by broth microdilution method in presence of beta-lactamase inhibitor Sulbactam
[23] = system: Haemophilus influenzae; assay: Antimicrobial activity against beta-lactamase negative ampicillin-susceptible Haemophilus influenzae harboring […] mutant gene by broth microdilution method
[24] = system: Haemophilus influenzae; assay: Antimicrobial activity against beta-lactamase positive (amoxicillin)clavulanate-resistant Haemophilus influenzae assessed as susceptible isolates by broth microdilution method

## CC1(C)S[C@@H]2[C@H](NC(=O)[C@H](N)c3ccc(O)cc3)C(=O)N2[C@H]1C(=O)O [AMOXICILLIN]
[1]
  Activity: 100%
[2]
  MIC50: 0.5 µg/mL
  MIC90: 1 µg/mL
[3]
  Activity: 100%
[4]
  Activity: 0%
[5]
  MIC50: 8 µg/mL
  MIC90: 8 µg/mL
[6]
  MIC: 0.5 µg/mL
  MIC50: 0.5 µg/mL
  MIC90: 1 µg/mL
[7]
  Activity: 27%
[8]
  MIC: 8 µg/mL
  MIC50: 8 µg/mL
  MIC90: 8 µg/mL

## CC1(C)S[C@@H]2[C@H](NC(=O)[C@H](N)c3ccccc3)C(=O)N2[C@H]1C(=O)O [AMPICILLIN]
[9]
  MIC50: ≥ 8 µg/mL
  MIC90: ≥ 8 µg/mL
[10]
  Activity: 0%
[11]
  Activity: 100%
[12]
  MIC: 0.5 µg/mL
  MIC50: 0.25 µg/mL
  MIC90: 0.5 µg/mL
[13]
  MIC50: 4 µg/mL
  MIC90: 8 µg/mL
[14]
  MIC: ≥ 8 µg/mL
  MIC50: ≥ 8 µg/mL
  MIC90: ≥ 8 µg/mL
[15]
  Activity: 0%
[16]
  Activity: 0%
[17]
  Activity: 22%
[18]
  Activity: 100%
[19]
  MIC50: 0.5 µg/mL
  MIC90: 0.5 µg/mL
[20]
  MIC: 8 µg/mL
  MIC50: 8 µg/mL
  MIC90: 16 µg/mL
[21]
  MIC50: 4 µg/mL (≈ 11.4 µM)
  MIC90: ≥ 8 µg/mL
[22]
  Activity: 75%
[23]
  MIC50: 0.25 µg/mL (≈ 0.715 µM)
  MIC90: 0.5 µg/mL (≈ 1.43 µM)
[24]
  Activity: 0%

## CO/N=C(\C(=O)N[C@@H]1C(=O)N2C(C(=O)O)=C(CSc3nc(=O)c(O)nn3C)CS[C@H]12)c1csc(N)n1 [CEFTRIAXONE]
[14]
  MIC50: 0.12 µg/mL
  MIC90: 0.25 µg/mL
[16]
  Activity: 100%
[21]
  MIC50: 0.25 µg/mL (≈ 0.451 µM)
  MIC90: 0.25 µg/mL (≈ 0.451 µM)
[24]
  Activity: 100%
